Assay results published in patent US20230321063A1, “COMPOSITIONS AND METHODS TO REDUCE NEUROINFLAMMATION” (Seattle Children's Hospital d/b/a Seattle Children's …, priority 2020, published 2023).

Tested on: non-lesion CNS tissue in Ndufs4(KO) mice
Assay: Brain immunological staining: microglia and astrocytes in cortex and brainstem outside of overt lesions
Type: in vivo, mouse
Settings: 300 mg/kg/day
Method: Brain immunological staining and microscopy. Brains were fixed for 48 hours in 10% formalin at 4° C. Following fixation, brains were moved to a cryoprotectant solution (30% sucrose, 1% DMSO, 100 μM glycine, 1×PBS, 0.45 μm filtered, pH 7.5), and stored for over 48 hours, until the fixed tissues sank to the bottom. Tissues were then placed in OCT media (Tissue-Tek OCT compound, Sakura 0004348-01), frozen in cryoblock holders on dry ice, and stored at −80° C. until sectioned for staining. Cryoblocks were cut at 50 μm thickness using a Leica CM30505 cryostat set at −40° C. Slices were moved to 1×PBS and stored at 4° C. until used for staining. Prior to staining, slices were mounted on slides and briefly dried to adhere.
Antibody staining was performed as follows: slides were first incubated in an antigen retrieval and permeabilization buffer (0.05% Triton X-100, 50 μM digitonin, 10 mM Tris-HCl, 1 mM EDTA, pH 9.0) at 60° C. overnight in a white-light LED illuminated box (to promote photobleaching of tissue autofluorescence). To reduce formaldehyde induced background fluorescence, slides were treated with sodium borohydride in ice cold PBS, added at 1 mg/mL immediately before incubation, on ice for 30 min, then moved to 10 mM glycine 1×PBS, pH 7.4, for 5 min at room temperature. Lipid background fluorescence was then blocked by incubating slides in 0.2 μm filtered Sudan Black B solution (5 mg/mL in 70% ethanol) overnight at room temperature. Slides were then rinsed twice, 5 min each, in 1×PBS. Excess fluid was wiped from the slide, and the tissue was circled using Liquid Blocker PAP pen (Fisher Scientific, NC9827128) to hold staining solutions. Slides were blocked for 15 min at room temperature in 1×PBS with 10% rabbit serum (Gibco, 16120-099) then stained overnight at 4° C. in a mixture of rabbit anti-IBA1-fluorochrome 635 conjugated (WAKO 013-26471) at 1:300, mouse anti-GFAP, Alexa555 conjugated (Cell Signaling, 3656S) at 1:300, and DAPI (Sigma, D9542) at 1 μg/mL. […]

FC(F)(F)c1ccc(CNc2ccc(Cc3c[nH]c4ncc(Cl)cc34)cn2)cn1 [pexidartinib, 5-[(5-chloro-1H-pyrrolo[2,3-b]pyridin-3-yl)methyl]-N-[[6-(trifluoromethyl)pyridin-3-yl]methyl]pyridin-2-amine]
astrocyte numbers in non-lesion CNS tissue: rescued to control levels
microglia numbers in non-lesion CNS tissue (beyond that of untreated control animals): near complete depletion of microglia
astrocytosis and microgliosis in non-lesion CNS tissue (cortex and brainstem outside overt lesions): prevented both forms of gliosis
